Several values for one entry are separate records, joined by “and”; a condition that tells them apart may be missing. Equal values may be shown once. Read-outs that look alike come from different tables or passages of the source.
Key:
[1] = tested on: HEV-3 replicon p6-Gluc; assay: microbe, parasite or virus in culture; assay type: cell-based, Hepatitis E virus
[2] = in vitro; conditions: human
[3] = Hepatitis E virus, HepG2, 24 h, read-out: HEV, EC90 (24 h, nM)
[4] = Hepatitis E virus, HepG2, 48 h, read-out: HEV, EC90 (48 h, nM)2

Compound	EC50 ([1]; Hepatitis E virus, HepG2, 24 h)	EC90 ([1]; Hepatitis E virus, HepG2, 24 h)	EC50 ([1]; Hepatitis E virus, HepG2, 48 h)	EC90 ([1]; Hepatitis E virus, HepG2, 48 h)	CC50 at 24 h [2]	CC50 at 48 h [2]	CC50 [2]	EC90 [1, 3]	EC90 [1, 4]	EC50 ([1]; read-out: EC50)	EC90 ([1]; read-out: EC90)
COC(=O)[C@H]1[C@@H](O)[C@@]2(O)c3c(OC)cc(OC)cc3O[C@@]2(c2ccc(Cl)cc2)[C@@H]1c1ccccc1 (racemic) [9a, (±)-Methyl (1R,2R,3S,3aR,8bS)-3a-(4-chlorophenyl)-1,8b-dihydroxy-6,8-dimethoxy-3-phenyl-2,3,3a,8b-tetrahydro-1H-cyclopenta[b]benzofuran-2-carboxylate]	19.4 nM	140 nM	16.8 nM	105 nM	513 nM	38.8 nM					
COC(=O)[C@H]1[C@@H](O)[C@@]2(O)c3c(Cl)cc(Cl)cc3O[C@@]2(c2ccc(Br)cc2)[C@@H]1c1ccccc1 (racemic) [9db, (±)-Methyl (1R,2R,3S,3aR,8bS)-3a-(4-bromophenyl)-6,8-dichloro-1,8b-dihydroxy-3-phenyl-2,3,3a,8b-tetrahydro-1H-cyclopenta[b]benzofuran-2-carboxylate]	29.6 nM	128 nM	14.7 nM	124 nM	389 nM	48 nM					
COC(=O)[C@H]1[C@@H](O)[C@@]2(O)c3c(Br)cc(Br)cc3O[C@@]2(c2ccc(OC)cc2)[C@@H]1c1ccccc1 (racemic) [9e, (±)-Methyl (1R,2R,3S,3aR,8bS)-6,8-dibromo-1,8b-dihydroxy-3a-(4-methoxyphenyl)-3-phenyl-2,3,3a,8b-tetrahydro-1H-cyclopenta[b]benzofuran-2-carboxylate]	36.1 nM	362 nM	33.2 nM	282 nM	766 nM	90.2 nM					
COC(=O)[C@H]1[C@@H](O)[C@@]2(O)c3c(Cl)cc(Br)cc3O[C@@]2(c2ccc(OC)cc2)[C@@H]1c1ccccc1 (racemic) [9f, (±)-Methyl (1R,2R,3S,3aR,8bS)-6-bromo-8-chloro-1,8b-dihydroxy-3a-(4-methoxyphenyl)-3-phenyl-2,3,3a,8b-tetrahydro-1H-cyclopenta[b]benzofuran-2-carboxylate]	9.9 nM	583 nM	14.9 nM	454 nM	663 nM	61 nM					
COC(=O)[C@H]1[C@@H](O)[C@@]2(O)c3c(Br)cc(Cl)cc3O[C@@]2(c2ccc(OC)cc2)[C@@H]1c1ccccc1 (racemic) [9g, (±)-Methyl (1R,2R,3S,3aR,8bS)-8-bromo-6-chloro-1,8b-dihydroxy-3a-(4-methoxyphenyl)-3-phenyl-2,3,3a,8b-tetrahydro-1H-cyclopenta[b]benzofuran-2-carboxylate]	52.1 nM	482 nM	37.9 nM	365 nM	812 nM	101 nM					
COC(=O)[C@H]1[C@@H](O)[C@@]2(O)c3c(F)cc(OC)cc3O[C@@]2(c2ccc(OC)cc2)[C@@H]1c1ccccc1 (racemic) [9h, (±)-Methyl (1R,2R,3S,3aR,8bS)-8-fluoro-1,8b-dihydroxy-6-methoxy-3a-(4-methoxyphenyl)-3-phenyl-2,3,3a,8b-tetrahydro-1H-cyclopenta[b]benzofuran-2-carboxylate]	61 nM	> 1000 nM	64.3 nM	634 nM		163 nM	> 1000 nM				
COC(=O)[C@H]1[C@@H](O)[C@@]2(O)c3c(OC)cc(F)cc3O[C@@]2(c2ccc(OC)cc2)[C@@H]1c1ccccc1 (racemic) [9i, (±)-Methyl (1R,2R,3S,3aR,8bS)-6-fluoro-1,8b-dihydroxy-8-methoxy-3a-(4-methoxyphenyl)-3-phenyl-2,3,3a,8b-tetrahydro-1H-cyclopenta[b]benzofuran-2-carboxylate]	> 1000 nM	> 1000 nM	732 nM	> 1000 nM		904 nM	> 1000 nM	> 1000 nM	> 1000 nM		
COC(=O)[C@H]1[C@@H](O)[C@@]2(O)c3c(Cl)cc(OC)cc3O[C@@]2(c2ccc(OC)cc2)[C@@H]1c1ccccc1 (racemic) [9j, (±)-Methyl (1R,2R,3S,3aR,8bS)-8-chloro-1,8b-dihydroxy-6-methoxy-3a-(4-methoxyphenyl)-3-phenyl-2,3,3a,8b-tetrahydro-1H-cyclopenta[b]benzofuran-2-carboxylate]	92.6 nM	577 nM	75.7 nM	394 nM	832 nM	148 nM					
COC(=O)[C@H]1[C@@H](O)[C@@]2(O)c3c(OC)cc(Cl)cc3O[C@@]2(c2ccc(OC)cc2)[C@@H]1c1ccccc1 (racemic) [9k, (±)-Methyl (1R,2R,3S,3aR,8bS)-6-chloro-1,8b-dihydroxy-8-methoxy-3a-(4-methoxyphenyl)-3-phenyl-2,3,3a,8b-tetrahydro-1H-cyclopenta[b]benzofuran-2-carboxylate]	5.4 nM	45.1 nM	2.5 nM	45.5 nM	443 nM	19.9 nM					
COC(=O)[C@H]1[C@@H](O)[C@@]2(O)c3c(Br)cc(OC)cc3O[C@@]2(c2ccc(OC)cc2)[C@@H]1c1ccccc1 (racemic) [9l, (±)-Methyl (1R,2R,3S,3aR,8bS)-8-bromo-1,8b-dihydroxy-6-methoxy-3a-(4-methoxyphenyl)-3-phenyl-2,3,3a,8b-tetrahydro-1H-cyclopenta[b]benzofuran-2-carboxylate]	83.6 nM	343 nM	44.7 nM	305 nM	787 nM	114 nM					
COCOc1cc(F)c2c(c1)O[C@@]1(c3ccc(OC)cc3)[C@H](c3ccccc3)[C@@H](C(=O)OC)[C@@H](O)[C@@]21O (racemic) [9na, (±)-Methyl (1R,2R,3S,3aR,8bS)-8-fluoro-1,8b-dihydroxy-6-(methoxymethoxy)-3a-(4-methoxyphenyl)-3-phenyl-2,3,3a,8b-tetrahydro-1H-cyclopenta[b]benzofuran-2-carboxylate]	202 nM	> 1000 nM	146 nM	873 nM	912 nM	236 nM					
COCOc1cc(F)c2c(c1)O[C@@]1(c3ccc(Br)cc3)[C@H](c3ccccc3)[C@@H](C(=O)OC)[C@@H](O)[C@@]21O (racemic) [9nb, (±)-Methyl (1R,2R,3S,3aR,8bS)-3a-(4-bromophenyl)-8-fluoro-1,8b-dihydroxy-6-(methoxymethoxy)-3-phenyl-2,3,3a,8b-tetrahydro-1H-cyclopenta[b]benzofuran-2-carboxylate]	86.9 nM	345 nM	63.2 nM	298 nM	727 nM	113 nM					
COC(=O)[C@H]1[C@@H](O)[C@@]2(O)c3c(OC)cc(OC)cc3O[C@@]2(c2ccc(F)cc2)[C@@H]1c1ccccc1 (racemic) [11ba, (±)-Methyl (1R,2R,3S,3aR,8bS)-3a-(4-fluorophenyl)-1,8b-dihydroxy-6,8-dimethoxy-3-phenyl-2,3,3a,8b-tetrahydro-1H-cyclopenta[b]benzofuran-2-carboxylate]	338 nM	> 1000 nM	334 nM	> 1000 nM		421 nM	> 1000 nM	> 1000 nM	> 1000 nM		
COC(=O)[C@H]1[C@@H](O)[C@@]2(O)c3c(OC)cc(OC)cc3O[C@@]2(c2ccc(Br)cc2)[C@@H]1c1ccccc1 (racemic) [11bb, (±)-Methyl (1R,2R,3S,3aR,8bS)-3a-(4-bromophenyl)-1,8b-dihydroxy-6,8-dimethoxy-3-phenyl-2,3,3a,8b-tetrahydro-1H-cyclopenta[b]benzofuran-2-carboxylate]	7.3 nM	158 nM	9.4 nM	91.3 nM	420 nM	27.1 nM					
COc1cc(OC)c2c(c1)O[C@@]1(c3ccc(Cl)cc3)[C@H](c3ccccc3)[C@@H](C(=O)N(C)C)[C@@H](O)[C@@]21O (racemic) [14aa, (±)-(1R,2R,3S,3aR,8bS)-3a-(4-chlorophenyl)-1,8b-dihydroxy-6,8-dimethoxy-N,N-dimethyl-3-phenyl-2,3,3a,8b-tetrahydro-1H-cyclopenta[b]benzofuran-2-carboxamide]	7.2 nM	174 nM	8.9 nM	102 nM	390 nM	22.7 nM					
COc1cc(OC)c2c(c1)O[C@@]1(c3ccc(F)cc3)[C@H](c3ccccc3)[C@@H](C(=O)N(C)C)[C@@H](O)[C@@]21O (racemic) [14baa, (±)-(1R,2R,3S,3aR,8bS)-3a-(4-fluorophenyl)-1,8b-dihydroxy-6,8-dimethoxy-N,N-dimethyl-3-phenyl-2,3,3a,8b-tetrahydro-1H-cyclopenta[b]benzofuran-2-carboxamide]	229 nM	> 1000 nM	208 nM	829 nM	966 nM	297 nM					
(±)-(1R,2R,3S,3aR,8bS)-1,8b-Dihydroxy-N,6,8-trimethoxy-3a-(4-methoxyphenyl)-3-phenyl-2,3,3a,8b-tetrahydro-1H-cyclopenta[b]benzofuran-2-carboxamide [(±)-CR-31-B (rac-1c), reference compound]										6.1 nM and 3.7 nM	27.3 nM and 29 nM
(±)-(1R,2R,3S,3aR,8bS)-3a-(4-chlorophenyl)-1,8b-dihydroxy-N,6,8-trimethoxy-3-phenyl-2,3,3a,8b-tetrahydro-1H-cyclopenta[b]benzofuran-2-carboxamide [14ab]										2.8 nM and 2.3 nM	18.2 nM and 23.8 nM
(±)-(1R,2R,3S,3aR,8bS)-3a-(4-fluorophenyl)-1,8b-dihydroxy-N,6,8-trimethoxy-3-phenyl-2,3,3a,8b-tetrahydro-1H-cyclopenta[b]benzofuran-2-carboxamide [14bab]										53.7 nM and 52.9 nM	338 nM and 670 nM
(±)-(1R,2R,3S,3aR,8bS)-8-Bromo-6-chloro-1,8b-dihydroxy-N-methoxy-3a-(4-methoxyphenyl)-3-phenyl-2,3,3a,8b-tetrahydro-1H-cyclopenta[b]benzofuran-2-carboxamide [14g]										4.1 nM and 5.5 nM	

From article PMC10788925 (Journal of Medicinal Chemistry, 2023)
